Patent US10494405B2, “Methods and compositions for the treatment of arthritis” (THE REGENTS OF THE UNIVERSITY OF MICHIGAN, priority 2015, dated 2019)
Numbered stars: 1 amine (or outer) side, 2 acyl side, 3 side chain; on linkers, the order of the positions; unused ones are H or OH. Bridge positions count the residues as written; N and C are the ends. Square brackets hold non-standard residues; d marks the D form. Peptide text beside a SMILES is read from it. CO = O=C([*:1])[*:2]; Nlys = NCCCCNCC(=O)O

Assays:
[1] = tested on: SE-activated signaling; experiment: Inhibition of SE-activated signaling in vitro; format: cell-based; conditions: read-out: IC50, inhibitor of SE-activated signaling
[2] = tested on: murine pre-OC cell line RAW 264.7; experiment: In vitro osteoclastogenesis, mouse cells (RAW 264.7); format: cell-based
Excerpt: In vitro osteoclastogenesis of murine pre-OC cell line RAW 264.7 in the presence of different doses of BK2.

[3] = tested on: human cells; experiment: In vitro osteoclastogenesis, human cells; format: cell-based
[4] = tested on: DBA/1 mice with CIA; experiment: Collagen-induced arthritis (CIA) in DBA/1 mice; format: in vivo, mouse
Description: A. DBA/1 mice with CIA received weekly ip doses of BK2, 446 pg/gm, or PBS (black) starting on day −1 relative to day of CIA induction, and joint swelling was recorded. N=10 per group. B. DBA/1 mice with CIA received a total of 4 weekly ip doses of BK2, 446 pg/gm, or PBS (black) starting at day 20 relative to day of CIA induction, at the time of arthritis onset, and joint swelling was recorded. Arrows indicate the treatment days. N=10 per group. C. DBA/1 mice with CIA received weekly sq doses of BK2446 pg/gm, or PBS (black) starting at day −1 relative to day of CIA induction, and joint swelling was recorded. N=10 per group. […] E. DBA/1 mice with CIA received a total of 4 weekly sq doses of BK2, 446 pg/gm, or PBS (black) starting at day 20 relative to day of CIA induction, at the time of arthritis onset, and joint swelling was recorded. Arrows indicate the treatment days. N=10 per group.

## C[C@H](NC(=O)CN1CCCCNC(=O)NCCCCN(C(=O)[C@@H](N)Cc2c[nH]c3ccccc23)CC(=O)N[C@@H](CC(=O)O)C(=O)N[C@@H](CCCCN)C(=O)N[C@@H](CO)C1=O)C(N)=O [BK2, Trp-c[Gly(4-aminobutyl)-Asp-Lys-Ser-Gly(4-aminobutyl)]-Ala-NH2] (H-W[Nlys]DKS[Nlys]A-NH2; linker 2-6 via CO)
[1]
  IC50: ~10 mM
[2]
  IC50 of anti-osteoclastogenic effect in vitro: pM-range
[3]
  IC50 of anti-osteoclastogenic effect in vitro: pM-range
[4]; CIA mice
  Inhibition of bone destruction in vivo: inhibition effect
  Inhibition of osteoclastogenesis in vivo: inhibition effect
[4]; DBA/1 mice, weekly ip or sq 446 pg/gm, from day -1 or day 20
  Inhibition effect on CIA (joint swelling): highly potent (picogram-range doses) inhibition effect
[4]; FIG. 3D: weekly sq 446 pg/gm starting day -1
  Radiological scores (bone destruction): protective effect on bone destruction
[4]; FIG. 3F: 4 weekly sq doses 446 pg/gm starting day 20 (arthritis onset)
  Radiological scores (bone destruction): protective effect on bone destruction
